Legend:
[1] = tested on: T-47D Tam2; experiment: relative IC50 (midpoint of fitted logistic curve, plateau may be below 50% inhibition; CellTiter-Glo viability); higher = less potent; settings: 4-OH-tamoxifen in medium 1 µM; 72 h
Summary of the method: (§1)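 Breast cancer cell lines and their resistant derivatives were seeded into 384-well plates containing library drugs at five concentrations across a 10 000-fold range, with resistant lines kept in medium with 1 μM of the selecting drug. After 72 h at 37 °C, CellTiter-Glo viability was read on a PHERAstar and normalised to vehicle-only and positive controls. Logistic dose–response fits in the Breeze pipeline gave drug sensitivity score, relative IC50 (curve midpoint) and top-dose inhibition.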

[2] = tested on: ZR-75-1 Tam1; experiment: as above; settings: 4-OH-tamoxifen in medium 1 µM; 72 h
Summary of the method: as §1

[3] = tested on: BT-474; experiment: as above; settings: 72 h
Summary of the method: as §1

[4] = tested on: T-47D Tam1; experiment: as above; settings: 4-OH-tamoxifen in medium 1 µM; 72 h
Summary of the method: as §1

[5] = tested on: MCF-7; experiment: as above; settings: 72 h
Summary of the method: as §1

[6] = tested on: T-47D; experiment: as above; settings: 72 h
Summary of the method: as §1

[7] = tested on: BT-474 Tam2; experiment: as above; settings: 4-OH-tamoxifen in medium 1 µM; 72 h
Summary of the method: as §1

[8] = tested on: T-47D Tam2; experiment: drug sensitivity score (DSS) (DSS (dimensionless)); higher = more sensitive; extreme values may be limits of the assay; settings: 4-OH-tamoxifen in medium 1 µM; 72 h
Procedure: (§2)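 FIMM FO2B library drugs were tested at 5 concentrations (10,000-fold range) for 72 h, with CellTiter-Glo viability normalised to DMSO and benzethonium chloride controls. The Drug Sensitivity Score (DSS) is computed from the fitted logistic dose-response curve (area-based; 0 = inactive). Resistant lines and the 'in 1µM tamoxifen' arms were tested in 1 µM 4-OH-tamoxifen.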

[9] = tested on: MCF-7 Tam1; experiment: as above; settings: 4-OH-tamoxifen in medium 1 µM; 72 h
Procedure: as §2

[10] = tested on: ZR-75-1 Tam1; experiment: as above; settings: 4-OH-tamoxifen in medium 1 µM; 72 h
Procedure: as §2

[11] = tested on: BT-474; experiment: as above; settings: 72 h
Procedure: as §2

[12] = tested on: T-47D Tam1; experiment: as above; settings: 4-OH-tamoxifen in medium 1 µM; 72 h
Procedure: as §2

[13] = tested on: MCF-7; experiment: as above; settings: 72 h
Procedure: as §2

[14] = tested on: ZR-75-1; experiment: as above; settings: 72 h
Procedure: as §2

[15] = tested on: BT-474 Tam1; experiment: as above; settings: 4-OH-tamoxifen in medium 1 µM; 72 h
Procedure: as §2

[16] = tested on: ZR-75-1 Tam2; experiment: as above; settings: 4-OH-tamoxifen in medium 1 µM; 72 h
Procedure: as §2

[17] = tested on: T-47D; experiment: as above; settings: 72 h
Procedure: as §2

[18] = tested on: BT-474 Tam2; experiment: as above; settings: 4-OH-tamoxifen in medium 1 µM; 72 h
Procedure: as §2

[19] = tested on: ZR-75-1; experiment: relative IC50 (midpoint of fitted logistic curve, plateau may be below 50% inhibition; CellTiter-Glo viability); higher = less potent; settings: 72 h
Summary of the method: as §1

[20] = tested on: ZR-75-1 Tam2; experiment: as above; settings: 4-OH-tamoxifen in medium 1 µM; 72 h
Summary of the method: as §1

[21] = tested on: BT-474 Tam1; experiment: as above; settings: 4-OH-tamoxifen in medium 1 µM; 72 h
Summary of the method: as §1

| SMILES | relative IC50 [1] [µM] | relative IC50 [2] [µM] | relative IC50 ([3]; 4-OH-tamoxifen in medium 1 µM) [µM] | relative IC50 [4] [µM] | relative IC50 ([5]; 4-OH-tamoxifen in medium 0 µM) [µM] | relative IC50 ([5]; 4-OH-tamoxifen in medium 1 µM) [µM] | relative IC50 ([6]; 4-OH-tamoxifen in medium 0 µM) [µM] | relative IC50 ([6]; 4-OH-tamoxifen in medium 1 µM) [µM] | relative IC50 [7] [µM] | drug sensitivity score [8] | drug sensitivity score [9] | drug sensitivity score [10] | drug sensitivity score ([11]; 4-OH-tamoxifen in medium 0 µM) | drug sensitivity score ([11]; 4-OH-tamoxifen in medium 1 µM) | drug sensitivity score [12] | drug sensitivity score ([13]; 4-OH-tamoxifen in medium 0 µM) | drug sensitivity score ([13]; 4-OH-tamoxifen in medium 1 µM) | drug sensitivity score ([14]; 4-OH-tamoxifen in medium 0 µM) | drug sensitivity score ([14]; 4-OH-tamoxifen in medium 1 µM) | drug sensitivity score [15] | drug sensitivity score [16] | drug sensitivity score ([17]; 4-OH-tamoxifen in medium 0 µM) | drug sensitivity score ([17]; 4-OH-tamoxifen in medium 1 µM) | drug sensitivity score [18] | relative IC50 ([19]; 4-OH-tamoxifen in medium 0 µM) [µM] | relative IC50 ([19]; 4-OH-tamoxifen in medium 1 µM) [µM] | relative IC50 [20] [µM] | relative IC50 [21] [µM] | relative IC50 ([3]; 4-OH-tamoxifen in medium 0 µM) [µM] |
| --- | --- | --- | --- | --- | --- | --- | --- | --- | --- | --- | --- | --- | --- | --- | --- | --- | --- | --- | --- | --- | --- | --- | --- | --- | --- | --- | --- | --- | --- |
| O=C(CCCCCCC(=O)Nc1ccc([C@H]2O[C@@H](CSc3nc(-c4ccccc4)c(-c4ccccc4)o3)C[C@@H](c3ccc(CO)cc3)O2)cc1)NO [Tubacin] | 3.71 | 3.35 | 3.38 | 1.84 | 1.36 | 1.86 | 3.43 | 3.71 | 3.84 | 1.62 | 0.69 | 1.41 | 1.29 | 4.44 | 3.65 | 5.52 | 5.63 | 0.333 | 0.912 | 0.976 | 0.331 | 2.87 | 4.31 | 1.25 |  |  |  |  |  |
| Nc1nc2[nH]cnc2c(=S)[nH]1 [Thioguanine] | 2.66 | 1.42 |  | 3.07 | 1.75 | 1.35 | 3.04 |  |  | 2.48 | 1.96 | 3.48 | 0.0001 | 1.03 | 2.75 | 4.8 | 4.57 | 4.81 | 1.76 | 0.758 | 2.86 | 1.83 | 0.681 | 0.61 | 1.08 | 2.69 | 1.44 |  |  |
| Cc1ccc(NC(=O)c2ccc(CN3CCN(C)CC3)cc2)cc1Nc1nc(-c2cccnc2)cs1 [Masitinib] | 3.23 |  | 3.64 | 1.78 | 1.54 | 3.77 | 3.57 | 3.46 | 2.57 | 1.99 | 1.1 | 0.886 | 0.359 | 3.44 | 2.68 | 3.51 | 1.67 | 0 | 0.352 | 4.94 | 1.85 | 1.85 | 2.81 | 5.8 | > 10 |  | 2.58 | 3.35 |  |
| CCS(=O)(=O)c1cccc(-c2cc(C(=O)NC3CCN(C)CC3)c(C)c3[nH]c4ncc(C)cc4c23)c1 [TAK-901] | 0.0933 | > 1 | 0.0905 | 0.138 |  |  | 0.182 |  |  | 2.96 | 0 | 0 | 0 | 3.36 | 6.67 | 0.354 | 2.84 | 0 | 0 | 1.12 | 0 | 3.25 | 0.53 | 2.87 | > 1 | > 1 | > 1 | 0.371 | > 1 |
| O=C(NC[C@H](O)CO)c1ccncc1Nc1ccc(I)cc1F | 1.94 | > 10 | 1.85 | > 10 | 2.77 |  |  | > 10 | > 10 | 2.47 | 0.0844 | 0 | 0.702 | 3.92 | 0 | 1.94 | 1.22 | 0 | 0 | 0.041 | 0 | 0 | 0 | 0 | > 10 |  | > 10 |  |  |
| CC(C)C[C@@H](C(=O)N[C@H](C(=O)OC1CCCC1)c1ccccc1)[C@H](O)C(=O)NO [Tosedostat (CHR 2797)] | 0.85 | 0.829 | 1.25 | 0.768 | 0.939 | 1.35 | 3.24 |  |  | 5.12 | 0 | 2.61 | 4 | 5.75 | 5.48 | 3.93 | 3.62 | 4.86 | 3.37 | 3.46 | 5.85 | 1.5 | 0.354 | 1.07 |  |  | 0.242 | 1.19 |  |
| COc1cc([C@@H]2c3cc4c(cc3[C@@H](O[C@@H]3O[C@@H]5CO[C@@H](c6cccs6)O[C@H]5[C@H](O)[C@H]3O)[C@H]3COC(=O)[C@H]23)OCO4)cc(OC)c1O [Teniposide] | 1.11 | 1.6 | 2.23 | 0.995 | 2.13 |  | 0.306 | 0.697 |  | 4.73 | 0.273 | 3.15 | 4.07 | 6.48 | 8.66 | 4.14 | 2.91 | 4.91 | 3.3 | 3.14 | 5.1 | 9.21 | 4.79 | 0.0097 | 0.703 | 1.07 | 0.737 | 3.45 | 2.13 |
| OC[C@H]1O[C@@H](n2cnc3c2N=CNC[C@H]3O)C[C@@H]1O [Pentostatin] | 1.45 | 2.93 |  | 1.32 | 1.54 | 1.32 | 1.9 |  |  | 3.19 | 0.721 | 2.62 | 0.324 | 0.0318 | 4.83 | 4.26 | 2.79 | 4.39 | 3.83 | 1.97 | 3.72 | 3.58 | 2.45 | 0.106 | 1.58 | 1.14 | 1.31 | 2.11 |  |

Source: the supplement of paper PMC4932681
